Experimental findings from article PMC4448982, “LP-925219 maximizes urinary glucose excretion in mice by inhibiting both renal SGLT1 and SGLT2” (Pharmacology Research & Perspectives, 2015) are described below.

SMILES strings stand for the structures.

For one series, the target named is dog SGLT2 (Canis lupus familiaris, UniProt Q5U9C9). Put plainly: 14C-AMG uptake assay, cells expressing dog SGLT2. The class given is cell-based. Conditions: mean ± SD. An excerpt: Methods for generating cell lines expressing mouse, rat, and dog SGLT1 and SGLT2 are published (Powell et al. [2013b], [2014]). Full-length coding sequence of human SGLT1 (NP_000334) and human SGLT2 (NP_003032.1) with an HA-tag at the N-terminus were cloned into the mammalian expression vector pIRESpuro2 (Clontech, Mountain View, CA). HEK293 cells (ATCC, Manassas, VA) were transfected with the pIRESpuro2 vector containing human SGLT1 or SGLT2 and bulk stable cell lines were selected in the presence of 0.5 μg/mL of puromycin.
Cell lines expressing SGLT1 or SGLT2 were plated into poly-D-lysine-coated 384-well plates, and culture overnight in cell growth medium. Cells were washed, and then incubated in uptake buffer ([…], […] KCl, […] CaCl2, […] MgCl2, […] HEPES/Tris, 1 mg/mL of bovine serum albumin, pH7.4) containing [^14C]α-methylglucopyranoside (^14C-AMG), a nonmetabolizable glucose analog specific for sodium-dependent glucose transporters (Wright and Turk [2004]). The inhibition of SGLT1 or SGLT2 was determined by measuring SGLT1/2-mediated ^14C-AMG uptake in the presence of increasing compound concentrations of LP-925219. […] Standard sigmoidal dose–response model curves were fitted, and the IC50 value was computed as the LP-925219 concentration that inhibited the ^14C-AMG uptake by 50% between baseline and maximum uptake.

A further series addresses T1, intestinal SGLT1 (Mus musculus, UniProt Q8C3K6).
T1 construct: from tissue; host or cells: small intestine of living male C57BL/6-Tyrc-Brd mice
T1 sequence (Q8C3K6 1-665): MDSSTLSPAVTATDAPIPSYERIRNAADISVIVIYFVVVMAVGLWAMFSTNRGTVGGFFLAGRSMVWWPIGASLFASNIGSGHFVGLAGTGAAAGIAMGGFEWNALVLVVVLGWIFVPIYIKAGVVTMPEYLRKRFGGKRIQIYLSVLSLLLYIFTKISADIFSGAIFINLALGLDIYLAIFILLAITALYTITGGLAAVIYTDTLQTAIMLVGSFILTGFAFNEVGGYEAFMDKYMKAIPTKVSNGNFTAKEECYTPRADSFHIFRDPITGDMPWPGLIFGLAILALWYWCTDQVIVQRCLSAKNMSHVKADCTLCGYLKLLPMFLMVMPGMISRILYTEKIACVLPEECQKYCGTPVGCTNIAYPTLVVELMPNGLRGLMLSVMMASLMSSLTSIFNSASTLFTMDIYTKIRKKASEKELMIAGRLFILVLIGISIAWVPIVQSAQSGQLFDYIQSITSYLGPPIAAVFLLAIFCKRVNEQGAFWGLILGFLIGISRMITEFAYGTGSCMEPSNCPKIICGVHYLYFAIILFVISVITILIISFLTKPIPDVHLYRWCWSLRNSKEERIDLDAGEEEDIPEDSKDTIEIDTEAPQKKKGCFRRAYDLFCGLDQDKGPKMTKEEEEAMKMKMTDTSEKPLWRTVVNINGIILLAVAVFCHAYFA
Put plainly: Glucose-containing meal challenge in C57 mice. The class given is in vivo. The method, then:
A meal consisting of low-fat diet (10% kcal as fat, D12450B; Research Diets, New Brunswick, NJ) supplemented with glucose was prepared by adding 50 g of low-fat diet powder and 9.4 g of glucose to water with a final volume of 94 mL. At 8:30 am, C57 mice in the fed state received either vehicle or 50 mg/kg LP-925219 by oral gavage; 30 min later, at Time = 0, each mouse received 25 mL/kg of the above meal (9.2 g/kg glucose, 2.5 g/kg protein, 0.6 g/kg fat) by oral gavage as described previously (Powell et al. [2013b]). Blood obtained from unanesthetized mice at 0, 10, and 30 min by tail nick, and at 60 min by retro-orbital bleed, was assayed for whole blood glucose using an Accu-Chek Aviva glucometer (Roche Diagnostics, Indianapolis, IN). The blood obtained at 60 min was also used to measure circulating levels of total GLP-1 (tGLP-1; Glucagon-Like Peptide-1 Total ELISA Kit, catalog #EZGLP1T-36K, EMD Millipore, Billerica, MA) as described previously (Powell et al. [2013b]). After their blood was drawn at 60 min, mice were anesthetized with isoflurane (TW Medical Veterinary Supply, Lago Vista, TX) and then euthanized by cervical dislocation. Cecal contents were then collected and analyzed for glucose and pH as described previously (Powell et al. [2013b]). Blood glucose time-course data were converted to area under the curve (AUC) values by trapezoidal summation using GraphPad Prism v4.03.
Mice received either vehicle or LP-925219 at a dose of 50 mg/kg (n = 5 for each group) by oral gavage; 30 min later the mice received, by oral gavage at Time 0, a glucose-containing meal challenge. (A) Blood glucose levels were measured at 0, 10, 30, and 60 min; for each mouse, blood glucose levels were used to calculate an AUC value for statistical analysis. At 60 min, blood was obtained for (B) tGLP-1 levels, and cecal contents were obtained and assayed for (C) cecal glucose and (D) cecal pH. LP-925219-treated value different from vehicle, *P < 0.05, **P < 0.01, ***P < 0.001. AUC, area under the curve.

Another series addresses T2, human SGLT1 (Homo sapiens, UniProt P13866).
T2 sequence (P13866 1-664): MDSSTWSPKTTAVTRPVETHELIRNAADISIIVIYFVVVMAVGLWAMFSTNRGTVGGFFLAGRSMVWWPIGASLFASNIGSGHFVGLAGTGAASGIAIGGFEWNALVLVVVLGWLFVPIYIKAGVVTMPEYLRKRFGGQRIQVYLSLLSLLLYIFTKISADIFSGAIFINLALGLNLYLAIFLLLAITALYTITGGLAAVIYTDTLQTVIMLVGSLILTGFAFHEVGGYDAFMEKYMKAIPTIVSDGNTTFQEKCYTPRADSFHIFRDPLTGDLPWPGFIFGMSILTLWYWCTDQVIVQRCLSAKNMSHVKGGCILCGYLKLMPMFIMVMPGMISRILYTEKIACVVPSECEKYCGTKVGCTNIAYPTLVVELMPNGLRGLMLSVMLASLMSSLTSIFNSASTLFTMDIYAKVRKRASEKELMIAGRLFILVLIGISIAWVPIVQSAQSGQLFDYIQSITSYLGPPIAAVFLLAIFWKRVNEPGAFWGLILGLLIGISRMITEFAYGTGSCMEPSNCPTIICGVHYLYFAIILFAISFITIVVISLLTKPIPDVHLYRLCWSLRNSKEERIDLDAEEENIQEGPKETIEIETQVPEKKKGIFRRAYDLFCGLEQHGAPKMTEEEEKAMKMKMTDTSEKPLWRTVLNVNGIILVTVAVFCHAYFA
Nature of the series: Compound washout study, cells expressing human SGLT1.

Where [1] appears, read: 50 mg/kg oral gavage, 60 min after meal, vs vehicle.

Chain of dog SGLT2 (Q5U9C9 entry or part of it): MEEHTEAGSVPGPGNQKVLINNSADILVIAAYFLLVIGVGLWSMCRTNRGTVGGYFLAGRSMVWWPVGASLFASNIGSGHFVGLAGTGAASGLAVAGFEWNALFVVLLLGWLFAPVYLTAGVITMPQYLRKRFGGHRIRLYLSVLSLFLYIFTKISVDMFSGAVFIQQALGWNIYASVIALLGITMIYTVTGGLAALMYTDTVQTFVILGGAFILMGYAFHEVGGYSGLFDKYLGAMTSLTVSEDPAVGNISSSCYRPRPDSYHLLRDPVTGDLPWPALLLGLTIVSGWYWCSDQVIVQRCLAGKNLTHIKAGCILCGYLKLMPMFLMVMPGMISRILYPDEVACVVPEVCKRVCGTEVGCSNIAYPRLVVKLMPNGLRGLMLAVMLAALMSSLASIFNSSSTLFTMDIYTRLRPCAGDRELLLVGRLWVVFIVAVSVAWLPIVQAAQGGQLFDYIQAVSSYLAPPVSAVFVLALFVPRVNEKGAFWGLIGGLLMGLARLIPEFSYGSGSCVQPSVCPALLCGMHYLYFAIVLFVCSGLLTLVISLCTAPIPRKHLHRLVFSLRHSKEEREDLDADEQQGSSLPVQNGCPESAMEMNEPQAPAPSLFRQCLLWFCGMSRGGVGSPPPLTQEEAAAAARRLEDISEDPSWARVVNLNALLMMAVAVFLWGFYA
Excerpt for human SGLT1: Cells expressing human SGLT2 were studied using the above protocol. […] Cells expressing human SGLT2 were studied using the above protocol.

At dog SGLT2, `COc1ccc(Cc2cc([C@@H]3O[C@H](SC)[C@@H](O)[C@H](O)[C@H]3O)ccc2Cl)cc1` [LP-925219] displayed an IC50 of 1 ± 0.3 nM. Besides, the “blood glucose AUC after meal challenge” value at intestinal SGLT1 (50 mg/kg oral gavage 30 min before meal, 0-60 min, vs vehicle, P < 0.05) is recorded as “significant decrease”. In addition, at intestinal SGLT1 (setting [1]), the cecal glucose result was “more glucose”, the “cecal pH” value is “lower pH” and the “circulating total GLP-1” value is “increased levels”. For the same molecule, the diarrhea result on intestinal SGLT1 (50 mg/kg oral gavage, short-term study) is “not observed”. 13 nM corresponded to half-maximal inhibition against human SGLT1 (no wash protocol) (IC50). At human SGLT1 (washout protocol, 18-20 h recovery after 30 min treatment), this molecule registered a half-maximal inhibitory concentration (IC50) of 1310 nM.
